# Article PMC2706308 (Biochimica et biophysica acta, 2009)
# Where a SMILES comes first, the peptide text is derived from it. The star is where a group is joined. Cbz = O=C(OCc1ccccc1)*
# Biological target: 20S proteasome (rat liver) (Rattus norvegicus, UniProt P18421+P28075)
# Assay: inhibition of suc-LLVY-AMC hydrolysis
# Format: biochemical
# Conditions: read-out: % inhibition at 10 uM
structure (smiles),measurement,value
CC(C)C[C@@H](C=O)NC(=O)[C@H](CC(C)C)NC(=O)[C@H](CC(C)C)NC(=O)OCc1ccccc1 [MG-132] (Cbz-Leu-Leu-Leu-aldehyde),inhibition at 10 µM,90%
